System: PBMC cultures from HIV-1 infected subjects on cART
Assay: Induced cytokines and chemokines in PBMC cultures from HIV-1 infected subjects on cART (multiplexed Luminex)
Format: cell-based, human
Method: To further characterize the immune modulatory effect of TLR8 agonists in cells from HIV-infected subjects, the production of secreted cytokines and chemokines was measured in PBMCs from 4 HIV-infected subjects on suppressive cART (anonymized participant IDs 180-183). PBMCs were purified, as described in Example 121, and immediately added to tissue culture plates pre-equilibrated at 37° C. with media containing DMSO (vehicle control) or with the TLR8 modulating compound Example 15 at concentrations ranging from 1.0 nM to 10.0 μM. On day 2 after treatment, cell-free culture supernatants were collected and frozen at −80 C for subsequent analysis. Frozen supernatants were thawed at room temperature, and the indicated cytokines and chemokines were quantified with a custom multiplexed xMAP Luminex® assay following the manufacturer's instructions (Thermo Fisher Scientific Inc., Grand Island, N.Y., custom-designed kit).
Data are expressed as geometric mean cytokine values (pg/ml) obtained from 4 subjects' PBMCs. Geometric mean fold-activation from three independent incubation samples for each condition. Fold (fold-activation) is calculated as a ratio of the concentration of cytokine detected in cell culture supernatants from agonist treated samples relative to DMSO treated samples

[1] = Ex 15 3000 nM, day 2, geometric mean, 4 subjects
[2] = Ex 15 10000 nM, day 2, geometric mean, 4 subjects

CCCC[C@H](CO)Nc1nc(N)nc2cccnc12 [Example 15]
IL-18 Fold vs DMSO [1]: 18 fold | IL-23 Fold vs DMSO [1]: 19 fold | IP-10 pg/ml [1]: 711 pg/mL | IP-10 Fold vs DMSO [1]: 3 fold | MCP-1 pg/ml [1]: 1646 pg/mL | MCP-1 Fold vs DMSO [1]: 25 fold | MIP-1α [1]: 21047 pg/mL | MIP-1α Fold vs DMSO [1]: 421 fold | MIP-1β [1]: 293183 pg/mL | MIP-1β Fold vs DMSO [1]: 240 fold | MIP-3α [1]: 2141 pg/mL | MIP-3α Fold vs DMSO [1]: 82 fold | MMP-1 pg/ml [1]: 311 pg/mL | MMP-1 Fold vs DMSO [1]: 3 fold | TNF-α [1]: 64062 pg/mL | TNF-α Fold vs DMSO [1]: 3051 fold | GRO-α [2]: 433 pg/mL | GRO-α Fold vs DMSO [2]: 19 fold | Granzyme B [2]: 644 pg/mL | Granzyme B Fold vs DMSO [2]: 3 fold | I-TAC [2]: 69 pg/mL | I-TAC Fold vs DMSO [2]: 1 fold | IFN-α [2]: 4 pg/mL | IFN-α Fold vs DMSO [2]: 2 fold | IFN-γ [2]: 1478 pg/mL | IFN-γ Fold vs DMSO [2]: 59 fold | IL-6 pg/ml [2]: 18836 pg/mL | IL-8 pg/ml [2]: 1118 pg/mL | IL-10 pg/ml [2]: 5167 pg/mL | IL-18 pg/ml [2]: 218 pg/mL | IL-23 pg/ml [2]: 965 pg/mL | IL-1RA [2]: 90289 pg/mL | IL-1RA Fold vs DMSO [2]: 25 fold | IL-1β [2]: 6611 pg/mL | IL-1β Fold vs DMSO [2]: 2204 fold | IL-6 Fold vs DMSO [2]: 241 fold | IL-8 Fold vs DMSO [2]: 4 fold | IL-10 Fold vs DMSO [2]: 304 fold | IL-12p70 pg/ml [2]: 113 pg/mL | IL-12p70 Fold vs DMSO [2]: 38 fold | IL-18 Fold vs DMSO [2]: 13 fold | IL-23 Fold vs DMSO [2]: 16 fold | IP-10 pg/ml [2]: 587 pg/mL | IP-10 Fold vs DMSO [2]: 2 fold | MCP-1 pg/ml [2]: 1796 pg/mL | MCP-1 Fold vs DMSO [2]: 27 fold | MIP-1α [2]: 24365 pg/mL | MIP-1α Fold vs DMSO [2]: 487 fold | MIP-1β [2]: 239694 pg/mL | MIP-1β Fold vs DMSO [2]: 196 fold | MIP-3α [2]: 1680 pg/mL | MIP-3α Fold vs DMSO [2]: 65 fold | MMP-1 pg/ml [2]: 740 pg/mL | MMP-1 Fold vs DMSO [2]: 8 fold | TNF-α [2]: 23017 pg/mL | TNF-α Fold vs DMSO [2]: 1096 fold | Peak fold-activation relative to DMSO, IL-12p70 (Example 15, 1.0 nM to 10.0 μM): 518 fold | Peak fold-activation relative to DMSO, IL-18 (Example 15, 1.0 nM to 10.0 μM): 18 fold | Peak fold-activation relative to DMSO, TNF-α (Example 15, 1.0 nM to 10.0 μM): 3051 fold | Induction of IFN-ω, IL-2, IL-4, IL-5, IL-7, IL-15, IL-17A, IL-21, IL-27, or IL-29 compared to DMSO control (Example 15, 1.0 nM to 10.0 μM, did not induce at levels >2-fold): ≤ 2 fold

From patent publication US20170071944A1, “MODULATORS OF TOLL-LIKE RECEPTORS FOR THE TREATMENT OF HIV” (Gilead Sciences, Inc., priority 2015, published 2017)
